The results in this text go back to BindingDB's records for doi:10.1021/acs.jmedchem.1c01655 (University of California San Diego, 2022).

The test addresses T1, Carboxy-terminal domain RNA polymerase II polypeptide A small phosphatase 1 (Homo sapiens, UniProt Q9GZU7).
T1 sequence (Q9GZU7 whole entry): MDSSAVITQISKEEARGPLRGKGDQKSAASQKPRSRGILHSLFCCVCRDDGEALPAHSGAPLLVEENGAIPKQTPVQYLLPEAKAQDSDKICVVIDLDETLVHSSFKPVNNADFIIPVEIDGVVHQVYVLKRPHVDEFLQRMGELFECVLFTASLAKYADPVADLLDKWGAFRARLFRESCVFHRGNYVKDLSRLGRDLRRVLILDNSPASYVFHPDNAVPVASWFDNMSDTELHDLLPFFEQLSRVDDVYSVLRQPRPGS
Nature of the test: Inhibition of wild type human SCP1 using pNPP as substrate incubated for 0.5 to 18 hrs followed by substrate addition by absorbance based analysis.

As usually defined, the IC50 is the midpoint of a concentration-inhibition curve. High values mean weaker potency, low ones greater potency.

Turning to `O=C(C1=CC2=C(CCC2)S1(=O)=O)N1CCN(S(=O)(=O)c2ccc(F)cc2)CC1`, inhibition was half-maximal at 220 µM (IC50).
